In patent publication US6887896B1, “7-[(7-Alkoxy)-chrom-3-en-6-yl]-heptatrienoic acid and 7-[(3-alkoxy)-5,6-dihydronaphthalen-2-yl]-heptatrienoic acid derivatives having serum glucose reducing activity” (Allergan, Inc., priority 2003, dated 2005):

Assays:
RXRβ [1] = biological target: T1, RXRβ (UniProt P28704); experiment: holoreceptor transactivation assay, RXRβ; assay type: cell-based; details: for EC50: holoreceptor transactivation, read-out: RXR Trans. EC50 β; for RXR Trans. efficacy (number in parentheses) β: percentage compared to the standard compound
T1 sequence (P28704 1-520): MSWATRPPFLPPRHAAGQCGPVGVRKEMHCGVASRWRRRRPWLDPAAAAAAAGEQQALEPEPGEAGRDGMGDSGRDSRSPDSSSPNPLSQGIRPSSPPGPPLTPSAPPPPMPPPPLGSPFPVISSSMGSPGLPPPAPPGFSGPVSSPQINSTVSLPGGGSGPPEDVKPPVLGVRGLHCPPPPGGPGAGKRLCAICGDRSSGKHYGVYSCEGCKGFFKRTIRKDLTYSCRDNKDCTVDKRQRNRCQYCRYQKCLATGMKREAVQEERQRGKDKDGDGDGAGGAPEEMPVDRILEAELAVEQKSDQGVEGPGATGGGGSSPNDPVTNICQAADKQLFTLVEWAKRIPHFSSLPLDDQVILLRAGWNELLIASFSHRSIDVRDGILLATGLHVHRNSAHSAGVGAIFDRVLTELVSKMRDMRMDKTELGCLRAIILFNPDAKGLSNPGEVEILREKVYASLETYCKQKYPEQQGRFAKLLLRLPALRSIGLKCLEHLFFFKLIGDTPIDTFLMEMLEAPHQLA
Text: (§1) Specifically, one such assay is a chimeric receptor transactivation assay which tests for agonist-like activity in the R RAPE and RAR7 receptor subtypes, and which is based on work published by Feigner, P. L. and Holm, M (1989) Focus, 112 is described in detail in U.S. Pat. No. 5,455,265. The specification of U.S. Pat. No. 5,455,265 is hereby expressly incorporated by reference. A holoreceptor transactivation assay and a ligand binding assay which measure the antagonist/agonist like activity of the compounds of the invention, or their ability to bind to the several retinoid receptor subtypes, respectively, are described in published PCT Application No. WO WO93/11755 (particularly on pages 30-33 and 37-41) published on Jun. 24, 1993, the specification of which is also incorporated herein by reference. A detailed experimental procedure for holoreceptor transactivations has been described by Heyman et al. Cell 68, 397-406, (1992); Allegretto et al. J. Biol. Chem. 268, 26625-26633, and Mangelsdorf et al. The Retinoids: Biology, Chemistry and Medicine, pp 319-349, Raven Press Ltd., New York, which are expressly incorporated herein by reference. The results obtained in this assay are expressed in EC50 numbers, as they are also in the chimeric receptor transactivation assay. The results of the ligand binding assay are expressed in Ki numbers. (See Cheng et al. Biochemical Pharmacology Vol. 22 pp 3099-3108, expressly incorporated herein by reference.)
(§2) Efficacy in a transactivation assay is expressed as a percentage of the maximum potency attained by the compound compared to a standard which, in this case, is the compound named (2E,4E,1′S,2′S)-3-methyl-5-[2′-methyl-2′-(5,5,8,8-tetramethyl-5,6,7,8-tetrahydro-naphthalen-2-yl)-cyclopropyl]-penta-2,4-dienoic acid. This standard compound is described in U.S. Pat. No. 6,114,533.
(§3) The specification of this application for patent is organized in several sections in accordance with structural Formulas A through F each of which discloses a group of preferred compounds within the scope of the invention. Tables that disclose the activity of certain exemplary compounds of the invention in the above-described RXR receptor transactivation and binding assays are found in the corresponding sections. […] The transactivation data pertaining to the activation of RXR receptors were obtained in the holoreceptor assay.
(§4) Generally speaking, in the tables disclosing the results of transactivation and binding assays the numbers in parentheses indicate efficacy as a percentage compared to the standard compound, (2E,4E,1′S,2′S)-3-methyl-5-[2′-methyl-2′-(5,5,8,8-tetramethyl-5,6,7,8-tetrahydro-naphthalen-2-yl)cyclopropyl]-penta-2,4-dienoic acid and the other numbers indicate the measured EC50 and K; in nanomolar concentration.

RXRβ [2] = biological target: T1, RXRβ; experiment: ligand binding assay, RXRβ; details: for Ki: read-out: RXR Bind Ki β
Text: as §1, §4

RXRα = biological target: T2, RXRα (Homo sapiens, UniProt P19793); experiment: ligand binding assay, RXRα; details: read-out: RXR Bind Ki α
T2 construct: expressed in transfected cells
T2 sequence (P19793 1-462): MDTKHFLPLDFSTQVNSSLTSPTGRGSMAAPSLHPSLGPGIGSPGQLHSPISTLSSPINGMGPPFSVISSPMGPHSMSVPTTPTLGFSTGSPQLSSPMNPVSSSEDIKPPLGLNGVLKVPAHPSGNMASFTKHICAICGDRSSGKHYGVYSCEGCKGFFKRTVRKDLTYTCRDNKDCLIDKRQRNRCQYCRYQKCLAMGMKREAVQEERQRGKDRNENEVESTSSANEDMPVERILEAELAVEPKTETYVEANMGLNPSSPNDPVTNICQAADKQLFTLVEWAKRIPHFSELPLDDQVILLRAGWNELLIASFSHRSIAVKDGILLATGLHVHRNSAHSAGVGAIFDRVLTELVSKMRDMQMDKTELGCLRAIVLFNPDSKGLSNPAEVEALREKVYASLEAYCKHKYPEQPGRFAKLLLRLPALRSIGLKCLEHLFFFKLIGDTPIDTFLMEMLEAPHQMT
Text: as §1, §4

RXRγ = biological target: T3, RXRγ (UniProt P28705); experiment: holoreceptor transactivation assay, RXRγ; assay type: cell-based; details: for EC50: holoreceptor transactivation, read-out: RXR Trans. EC50 γ; for RXR Trans. efficacy (number in parentheses) γ: percentage compared to the standard compound
T3 sequence (P28705 1-463): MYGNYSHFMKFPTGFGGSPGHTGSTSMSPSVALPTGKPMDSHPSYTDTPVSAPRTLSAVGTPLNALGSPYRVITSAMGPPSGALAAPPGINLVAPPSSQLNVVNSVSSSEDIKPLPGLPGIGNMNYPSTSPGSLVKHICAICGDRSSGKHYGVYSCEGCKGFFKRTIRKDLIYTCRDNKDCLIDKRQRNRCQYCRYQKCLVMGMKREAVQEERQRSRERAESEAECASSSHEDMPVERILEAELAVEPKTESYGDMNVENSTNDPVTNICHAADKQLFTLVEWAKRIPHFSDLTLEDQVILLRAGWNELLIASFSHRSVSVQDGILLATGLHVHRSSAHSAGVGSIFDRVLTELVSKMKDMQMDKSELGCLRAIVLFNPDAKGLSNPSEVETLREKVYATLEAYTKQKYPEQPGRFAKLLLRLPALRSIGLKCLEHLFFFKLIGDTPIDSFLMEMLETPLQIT
Text: as §1, §2, §3, §4

EC50 (RXRβ [1])	RXR Trans. efficacy (number in parentheses) β (RXRβ [1])	Ki (RXRβ [2])	Ki (RXRα)	EC50 (RXRγ)	RXR Trans. efficacy (number in parentheses) γ (RXRγ)	Kd (RXRβ [2]; Table 9 (Formula F), read-out: RXR β Kd)	SMILES
55 nM	98%	228 nM	49 nM	13 nM	125%	–	CCC1=CC(C)(C)Oc2cc(OC)c(\C(C)=C/C=C/C(C)=C/C(=O)O)cc21 [Compound 42, 7-(4-Ethyl-7-methoxy-2,2-dimethyl-2H-chromen-6-yl)-3-methyl-octa-2E,4E,6Z-trienoic acid]
16 nM	96%	78 nM	6 nM	3 nM	95%	–	COc1cc2c(cc1\C(C)=C/C=C/C(C)=C/C(=O)O)C(C(C)C)=CC(C)(C)O2 [Compound 43, 7-(4-Isopropyl-7-methoxy-2,2-dimethyl-2H-chromen-6-yl)-3-methyl-octa-2E,4E,6Z-trienoic acid]
4.4 nM	94%	38 nM	4 nM	0.4 nM	97%	–	CC/C(=C/C=C/C(C)=C/C(=O)O)c1cc2c(cc1OC)OC(C)(C)C=C2C(C)C [Compound 44, 7-(4-Isopropyl-7-methoxy-22-dimethyl-2H-chromen-6-yl)-3-methyl-nona-2E,4E,6Z-trienoic acid]
> 1000 nM	–	343 nM	52 nM	–	–	–	CCOc1cc2c(cc1\C(C)=C/C=C/C(C)=C/C(=O)O)C(CC)=CC(C)(C)O2 [Compound 45, 7-(7-Ethoxy-4-ethyl-2,2-dimethyl-2H-chromen-6-yl)-3-methyl-octa-2E,4E,6Z-trienoic acid]
> 1000 nM	–	1700 nM	199 nM	> 1000 nM	–	–	CCOc1cc2c(cc1\C(=C/C=C/C(C)=C/C(=O)O)CC)C(C)=CC(C)(C)O2 [Compound 46, 7-(7-Ethoxy-2,2,4-trimethyl-2H-chromen-6-yl)-3-methyl-nona-2E,4E,6Z-trienoic acid]
–	–	> 10000 nM	833 nM	> 1000 nM	–	–	CCOc1cc2c(cc1\C(C)=C(F)/C=C/C(C)=C/C(=O)O)C(CC)=CC(C)(C)O2 [Compound 123, 7-(7-Ethoxy-4-ethyl-2,2-dimethyl-2H-chromen-6-yl)-6-fluoro-3-methyl-octa-2E,4E,6E-trienoic acid]

The next lines start with the compound.

SMILES	EC50 (RXRβ [1])	RXR Trans. efficacy (number in parentheses) β (RXRβ [1])	Ki (RXRβ [2])	Ki (RXRα)	EC50 (RXRγ)	RXR Trans. efficacy (number in parentheses) γ (RXRγ)	Kd (RXRβ [2]; Table 9 (Formula F), read-out: RXR β Kd)
CCOc1cc2c(cc1\C(C)=C(F)/C=C/C(C)=C/C(=O)O)C(C)=CCC2(C)C	12 nM	59%	15 nM	2 nM	3 nM	70%	–
COc1c(\C(C)=C/C=C/C(C)=C/C(=O)O)cc2c(c1Cl)OC(C)(C)C=C2C(C)C [Compound 49, 7-(8-Chloro-4-isopropyl-7-methoxy-2,2-dimethyl-2H-chromen-6-y)-3-methyl-octa-2E,4E,6Z-trienoic acid]	0.9 nM	98%	20 nM	2 nM	0.3 nM	97%	–
CCOc1c(\C(C)=C/C=C/C(C)=C/C(=O)O)cc2c(c1Cl)OC(C)(C)C=C2C(C)C [Compound 50, 7-(8-Chloro-4-isopropyl-7-ethoxy-2,2-dimethyl-2H-chromen-6-yl)-3-methyl-octa-2E,4E,6Z-trienoic acid]	19 nM	57%	76 nM	4 nM	5 nM	47%	–
CCOc1c(\C(=C/C=C/C(C)=C/C(=O)O)CC)cc2c(c1Cl)OC(C)(C)C=C2C(C)C [Compound 51]	88 nM	26%	112 nM	13 nM	22 nM	13%	–
CCOc1cc2c(cc1\C(C)=C(F)/C=C/C(C)=C/C(=O)O)C(c1ccccc1)=CC(C)(C)O2 [Compound 127, (2E,4E,6E)-7-(7-Ethoxy-2,2-dimethyl-4-phenyl-2H-chromen-6-yl)-6-fluoro-3-methyl-octa-2,4,6-trienoic acid]	–	–	554 nM	97 nM	–	–	–
CCCOc1cc2c(cc1\C(C)=C(F)/C=C/C(C)=C/C(=O)O)C(c1ccccc1)=CC(C)(C)O2 [Compound 128, (2E,4E,6E)-7-(2,2-Dimethyl-4-phenyl-7-propoxy-2H-chromen-6-yl)-6-fluoro-3-methyl-octa-2,4,6-trienoic acid]	–	–	289 nM	53 nM	–	–	–
CCCOc1cc2c(cc1\C(C)=C(F)/C=C/C(C)=C/C(=O)O)C(C(C)C)=CCC2(C)C [Compound A-80]	–	–	56 nM	10 nM	–	–	–
CC(/C=C/C(F)=C(/C)c1cc2c(cc1OCC1CC1)C(C)(C)CC=C2C(C)C)=C\C(=O)O [Compound A-81, (2E,4E,6E)-6-Fluoro-3-(4-dimethyl-6-(cyclopropyl)methoxy-1-isopropyl-3,4-dihydronaphthalen-7-yl)-3-methyl-2,4.6-octa-trienoic acid]	–	–	33 nM	12 nM	–	–	–
CCCOc1cc2c(cc1\C(C)=C(F)/C=C/C(C)=C/C(=O)O)C(C(C)(C)C)=CCC2(C)C [Compound A-84, (2E,4E,6E)-6-Fluoro-3-(4,$dimethyl-6-n-propoxy-1-tert-butyl-3,4-dihydronaphthalen-7-yl)-3-methyl-2,4,6-octatrienoic acid]	–	–	101 nM	13 nM	–	–	–
CCOc1c(\C(CC)=C(F)/C=C/C(C)=C/C(=O)O)cc2c(c1Br)C(C)(C)CC=C2C(C)CC (stereo not shown) [Compound A-176, (2E,4E,6E)-7-(4-Bromo-8-sec-butyl-3-ethoxy-5,5-methyl-5,6-dihydro-naphthalen-2-yl)-6-fluoro-3-methyl-nona-2,4,6-trienoic acid]	4 nM	58%	–	–	3 nM	53%	23 nM
